Legend:
Cholinesterase [1] = target: Cholinesterase (Homo sapiens, UniProt P06276); test: Inhibition of human BuChE in serum; format: cell-free
Acetylcholinesterase [2] = target: T1, Acetylcholinesterase (Homo sapiens, UniProt P22303); test: Displacement of propidium iodide from AChE peripheral anionic site at 0.3 uM
Acetylcholinesterase [3] = target: T1, Acetylcholinesterase; test: Displacement of propidium iodide from AChE peripheral anionic site at 1 uM
Acetylcholinesterase [4] = target: T1, Acetylcholinesterase; test: Displacement of propidium iodide from AChE peripheral anionic site at 3 uM
SH-SY5Y [5] = test: Neuroprotective activity against human SH-SY5Y cells assessed as protection reduction in H2O2-induced LDH release at 1 uM after 24 hrs; format: functional; set-up: scale not given: the % may be the effect or the level left
SH-SY5Y [6] = test: Neuroprotective activity against human SH-SY5Y cells assessed as protection reduction in H2O2-induced LDH release at 3 uM after 24 hrs; format: functional; set-up: scale not given: the % may be the effect or the level left
SH-SY5Y [7] = test: Neuroprotective activity against human SH-SY5Y cells assessed as protection reduction in H2O2-induced LDH release at 10 uM after 24 hrs; format: functional; set-up: scale not given: the % may be the effect or the level left
SH-SY5Y [8] = test: Neuroprotective activity against human SH-SY5Y cells assessed as protection reduction in H2O2-induced LDH release at 30 uM after 24 hrs; format: functional; set-up: scale not given: the % may be the effect or the level left
SH-SY5Y [9] = test: Neuroprotective activity against H2O2-induced human SH-SY5Y cells assessed as cell viability at 30 uM after 24 hrs; format: functional; conditions: read-out: Activity
SH-SY5Y [10] = test: Neuroprotective activity against rotenone/oligomycin A-treated human SH-SY5Y cells assessed as cytoprotection at 0.3 uM pretreated 24 hrs before rotenone/oligomycin A challenge; format: functional
SH-SY5Y [11] = test: Neuroprotective activity against rotenone/oligomycin A-treated human SH-SY5Y cells assessed as cytoprotection at 1 uM pretreated 24 hrs before rotenone/oligomycin A challenge; format: functional
SH-SY5Y [12] = test: Neuroprotective activity against rotenone/oligomycin A-treated human SH-SY5Y cells assessed as cytoprotection at 3 uM pretreated 24 hrs before rotenone/oligomycin A challenge; format: functional
SH-SY5Y [13] = test: Neuroprotective activity against human SH-SY5Y cells assessed as cytoprotection at 0.3 uM coincubated with rotenone/oligomycin A measured after 24 hrs; format: functional
SH-SY5Y [14] = test: Neuroprotective activity against human SH-SY5Y cells assessed as cytoprotection at 1 uM coincubated with rotenone/oligomycin A measured after 24 hrs; format: functional
SH-SY5Y [15] = test: Neuroprotective activity against human SH-SY5Y cells assessed as cytoprotection at 3 uM coincubated with rotenone/oligomycin A measured after 24 hrs; format: functional
Cholinesterase [16] = target: Cholinesterase (Equus caballus, UniProt P81908)
Description: Inhibition of BuChE in horse serum by Ellman method

Acetylcholinesterase [17] = target: T1, Acetylcholinesterase
Description: Inhibition of human AChE in erythrocyte

Acetylcholinesterase [18] = target: T2, Acetylcholinesterase (Bos taurus, UniProt P23795)
T2 sequence (P23795 whole entry): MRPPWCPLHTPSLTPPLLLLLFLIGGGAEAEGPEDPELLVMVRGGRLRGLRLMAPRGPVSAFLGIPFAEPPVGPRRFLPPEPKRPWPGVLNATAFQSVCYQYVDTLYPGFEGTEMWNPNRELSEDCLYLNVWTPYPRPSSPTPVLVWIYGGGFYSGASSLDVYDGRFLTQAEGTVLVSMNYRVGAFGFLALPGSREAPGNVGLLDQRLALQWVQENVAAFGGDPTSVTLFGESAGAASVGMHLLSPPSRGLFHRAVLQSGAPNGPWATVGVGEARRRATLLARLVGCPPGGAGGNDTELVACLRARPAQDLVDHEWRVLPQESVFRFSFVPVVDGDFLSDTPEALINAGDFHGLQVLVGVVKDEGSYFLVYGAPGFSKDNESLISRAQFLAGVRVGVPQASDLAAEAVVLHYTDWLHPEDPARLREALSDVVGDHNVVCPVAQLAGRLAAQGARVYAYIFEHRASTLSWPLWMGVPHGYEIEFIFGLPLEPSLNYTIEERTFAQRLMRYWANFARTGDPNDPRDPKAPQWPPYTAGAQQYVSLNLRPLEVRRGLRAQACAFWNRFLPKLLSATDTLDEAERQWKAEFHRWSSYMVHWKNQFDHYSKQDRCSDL
Description: Inhibition of AChE in bovine erythrocyte by Ellman method

in vitro = conditions: PAMPA
Description: Permeability across PAMPA membrane

SH-SY5Y [19] = test: Neuroprotective activity against rotenone/oligomycin A-treated human SH-SY5Y cells assessed as cytoprotection at 0.1 uM pretreated 24 hrs before rotenone/oligomycin A challenge; format: functional
SH-SY5Y [20] = test: Neuroprotective activity against human SH-SY5Y cells assessed as cytoprotection at 0.1 uM coincubated with rotenone/oligomycin A measured after 24 hrs; format: functional

Cholinesterase (Equus caballus, UniProt P81908), sequence (P81908 whole entry): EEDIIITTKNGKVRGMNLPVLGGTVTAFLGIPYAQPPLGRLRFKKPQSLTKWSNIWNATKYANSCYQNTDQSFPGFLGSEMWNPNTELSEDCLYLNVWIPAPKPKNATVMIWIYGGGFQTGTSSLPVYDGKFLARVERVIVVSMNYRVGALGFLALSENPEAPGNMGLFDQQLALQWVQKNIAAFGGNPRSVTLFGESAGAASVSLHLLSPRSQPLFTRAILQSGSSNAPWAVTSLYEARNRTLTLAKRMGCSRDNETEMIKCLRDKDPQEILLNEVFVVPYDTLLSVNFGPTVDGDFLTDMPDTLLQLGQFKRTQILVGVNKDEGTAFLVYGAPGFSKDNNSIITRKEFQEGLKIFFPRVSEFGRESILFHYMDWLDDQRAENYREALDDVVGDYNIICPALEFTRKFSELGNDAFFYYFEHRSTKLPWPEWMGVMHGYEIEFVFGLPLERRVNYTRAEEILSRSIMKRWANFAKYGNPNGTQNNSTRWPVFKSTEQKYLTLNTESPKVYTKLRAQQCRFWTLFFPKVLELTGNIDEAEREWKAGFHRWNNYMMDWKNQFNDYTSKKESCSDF
T1 sequence (P22303 whole entry): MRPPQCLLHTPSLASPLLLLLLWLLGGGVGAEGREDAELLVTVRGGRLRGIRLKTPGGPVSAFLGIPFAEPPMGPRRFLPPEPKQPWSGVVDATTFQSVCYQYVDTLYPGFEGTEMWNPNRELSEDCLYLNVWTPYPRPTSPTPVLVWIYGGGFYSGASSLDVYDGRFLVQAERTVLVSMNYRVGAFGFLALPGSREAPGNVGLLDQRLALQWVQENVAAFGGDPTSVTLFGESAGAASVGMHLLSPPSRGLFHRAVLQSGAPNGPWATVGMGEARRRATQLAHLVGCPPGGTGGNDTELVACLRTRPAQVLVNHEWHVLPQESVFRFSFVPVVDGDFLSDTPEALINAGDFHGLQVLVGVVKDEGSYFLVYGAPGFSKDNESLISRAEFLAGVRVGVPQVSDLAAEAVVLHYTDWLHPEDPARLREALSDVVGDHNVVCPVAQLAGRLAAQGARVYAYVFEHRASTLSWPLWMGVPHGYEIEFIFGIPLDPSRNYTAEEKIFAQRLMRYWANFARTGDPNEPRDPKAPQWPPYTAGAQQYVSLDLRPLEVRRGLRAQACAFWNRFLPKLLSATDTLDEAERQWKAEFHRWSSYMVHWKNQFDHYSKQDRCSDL
Cholinesterase (Homo sapiens, UniProt P06276), sequence (P06276 whole entry): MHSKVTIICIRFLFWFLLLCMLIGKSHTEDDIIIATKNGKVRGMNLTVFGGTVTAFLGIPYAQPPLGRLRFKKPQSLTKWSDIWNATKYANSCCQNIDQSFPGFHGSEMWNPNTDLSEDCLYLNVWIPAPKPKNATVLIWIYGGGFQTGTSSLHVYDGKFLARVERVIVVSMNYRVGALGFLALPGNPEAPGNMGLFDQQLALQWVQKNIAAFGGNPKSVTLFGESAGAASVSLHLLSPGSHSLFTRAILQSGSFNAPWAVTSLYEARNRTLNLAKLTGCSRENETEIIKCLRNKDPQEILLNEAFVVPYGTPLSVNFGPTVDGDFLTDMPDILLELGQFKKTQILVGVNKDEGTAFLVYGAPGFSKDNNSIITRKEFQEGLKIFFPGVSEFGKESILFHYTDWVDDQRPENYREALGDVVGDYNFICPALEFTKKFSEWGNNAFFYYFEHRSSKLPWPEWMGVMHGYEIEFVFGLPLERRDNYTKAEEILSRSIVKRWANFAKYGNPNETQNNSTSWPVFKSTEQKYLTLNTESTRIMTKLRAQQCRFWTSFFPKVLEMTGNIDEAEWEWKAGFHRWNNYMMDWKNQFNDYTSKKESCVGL

| Structure (SMILES) | IC50 (Cholinesterase [1]) | Activity (Acetylcholinesterase [2]) | Activity (Acetylcholinesterase [3]) | Activity (Acetylcholinesterase [4]) | Activity (SH-SY5Y [5]) | Activity (SH-SY5Y [6]) | Activity (SH-SY5Y [7]) | Activity (SH-SY5Y [8]) | viability at 30 µM (SH-SY5Y [9]) | Activity (SH-SY5Y [10]) | Activity (SH-SY5Y [11]) | Activity (SH-SY5Y [13]) | Activity (SH-SY5Y [14]) | IC50 (Cholinesterase [16]) | IC50 (Acetylcholinesterase [17]) | IC50 (Acetylcholinesterase [18]) | Papp (in vitro) | other results |
| --- | --- | --- | --- | --- | --- | --- | --- | --- | --- | --- | --- | --- | --- | --- | --- | --- | --- | --- |
| CCCCCCOC(=O)[C@H](CCC(=O)NCCC1CCN(Cc2ccccc2)CC1)NC(=O)c1ccccc1 | 1750 nM | 24.7% | 15.9% | 37.3% | 43.9% | 68.1% | 52.4% | 67% | 100% | 47.9% | 43.8% | 20.1% | 21% | 1500 nM | 530 nM | 1900 nM | 18.7 ×10⁻⁶ cm/s | Activity (SH-SY5Y [12]): 38.5%; Activity (SH-SY5Y [15]): 15.1% |
| CCCCCCOC(=O)[C@H](CCC(=O)NCCC1CCN(Cc2ccccc2)CC1)NC(=O)c1cc2ccsc2s1 | 350 nM | 42.2% | 33.3% | 23.3% | 54.5% | 41.6% | 46.4% | 20.3% | 100% | 46.1% | 45.4% | 20.8% | 30.8% | 700 nM | 300 nM | 3500 nM | 28.5 ×10⁻⁶ cm/s | Activity (SH-SY5Y [19]): 34.8%; Activity (SH-SY5Y [20]): 22.3% |
| Cc1c(C)c2c(c(C)c1O)CCC(C)(C(=O)O)O2 (centres undefined) [TROLOX] | – | – | – | – | 0% | 0% | – | 57.7% | – | – | – | – | – | – | – | – | – | Activity (SH-SY5Y [12]): 65.1%; Activity (SH-SY5Y [15]): 63.7% |
| CCCCCCOC(=O)[C@H](CCC(=O)NCCC1CCN(Cc2ccccc2)CC1)NC(=O)OCc1ccccc1 | 730 nM | 20.8% | 25% | 29.3% | 4.1% | 17.4% | 39.1% | 5.3% | 100% | – | – | – | – | 750 nM | 250 nM | 1400 nM | – | – |
| CCCCCCOC(=O)[C@H](CCC(=O)NCCC1CCN(Cc2ccccc2)CC1)NC(=O)c1cc2ccccc2s1 | 330 nM | 31.5% | 26.5% | 39.7% | 28.7% | 20.9% | 21.2% | 17.9% | 100% | – | – | – | – | 550 nM | 270 nM | 2500 nM | 25.6 ×10⁻⁶ cm/s | – |
| CCCCCCOC(=O)[C@H](CCC(=O)NCCC1CCN(Cc2ccccc2)CC1)NC(=O)Cc1cc2ccc(Cl)cc2s1 | 70 nM | 14.7% | 16% | 23.4% | 26.2% | 32.5% | 0% | 0% | 100% | – | – | – | – | 50 nM | 100 nM | 2300 nM | – | – |
| CCCCCCOC(=O)[C@H](CCC(=O)NCCC1CCN(Cc2ccccc2)CC1)NC(=O)c1cc2cccnc2s1 | 830 nM | 37.4% | 35.4% | 27.2% | 0% | 30.7% | 27.9% | 48.8% | 100% | – | – | – | – | 950 nM | 440 nM | 330 nM | 18.8 ×10⁻⁶ cm/s | – |
| CCCCCCOC(=O)[C@H](CCC(=O)NCCC1CCN(Cc2ccccc2)CC1)NC(=O)OC(C)(C)C | 3000 nM | 42.3% | 43.6% | 42% | 24.9% | 1.7% | 0% | 0% | 100% | – | – | – | – | 3500 nM | 950 nM | 5000 nM | 11.6 ×10⁻⁶ cm/s | – |
| CCCCCCOC(=O)[C@H](CCC(=O)NCCC1CCN(Cc2ccccc2)CC1)NC(=O)c1cccs1 | 1800 nM | 7.5% | 10.3% | 15% | 55.1% | 64.5% | 73% | 31.8% | 100% | 27.1% | 22.3% | 0% | 7% | 1000 nM | 500 nM | 3500 nM | 20.9 ×10⁻⁶ cm/s | Activity (SH-SY5Y [19]): 48.9%; Activity (SH-SY5Y [20]): 0% |
| CCCCCCOC(=O)[C@H](CCC(=O)NCCC1CCN(Cc2ccccc2)CC1)NC(=O)c1cc(Br)cs1 | 850 nM | 11.3% | < 0.5% | < 0.5% | 63.3% | 84.3% | 66.7% | 66.7% | 100% | 19% | 27.8% | 19.7% | 0% | 750 nM | 180 nM | 1200 nM | – | Activity (SH-SY5Y [12]): 21.4%; Activity (SH-SY5Y [15]): 19.6% |
| C=CC[N+](C)(C)c1ccc(CCC(=O)CCc2ccc([N+](C)(C)CC=C)cc2)cc1 | – | – | – | 16% | – | – | – | – | – | – | – | – | – | – | – | – | – | – |

Source: ChEMBL document CHEMBL1154393, “Neuroprotective and cholinergic properties of multifunctional glutamic acid derivatives for the treatment of Alzheimer's disease” (J Med Chem, 2009)
